Results reported in patent US20240366809A1, “INHIBITOR OF PROSTATE SPECIFIC MEMBRANE ANTIGEN AND PHARMACEUTICAL USE THEREOF” (TIANJIN HENGRUI MEDICINE CO., LTD., priority 2021, published 2024).
“And” between values parts separate entries of the source, which are not always exact repeats. Equal values may be shown once.

What was measured:
[1] = Pharmacokinetics in blood of normal mice after single tail-vein injection; format: in vivo; details: for Blood % ID/g: normal mice, individual animals 1-4
Protocol: Through single tail-vein injections into mice, the pharmacokinetics of ^68Ga-v (Example 9) and PSMA-617 in blood was studied.
Each mouse was dosed at 50 μCi/100 μL, and blood samples were taken from the orbit 0.083, 0.25, 0.5, 1, 2, and 4 h post-dose (4 animals per time point). The blood samples were collected in pre-weighed sample tubes. The tubes were weighed and the weight of the blood samples was recorded. Then radioactivity counting was performed using a γ-counter. Meanwhile, a test sample was accurately diluted 100-fold, and 0.1 mL of the dilution was added to a counting tube and used as standard 1% ID (i.e., one percent of the injected dose). The radioactivity counts of the 1% ID standard and the biological samples were measured simultaneously on a γ-counter. The data on blood were expressed as the percentage of the radioactivity counts per gram of blood to the total injected dose (radioactivity counts) (% ID/g). Pharmacokinetic parameters were calculated from blood drug concentration data.

[2] = tested on: human organs; assay: Absorbed doses of radiation, estimates for human organs (OLINDA software); details: for radiation dose estimate, Adrenals: human organ: Adrenals; for radiation dose estimate, Brain: human organ: Brain; for radiation dose estimate, Esophagus: human organ: Esophagus; for radiation dose estimate, Eyes: human organ: Eyes; for radiation dose estimate, Gallbladder Wall: human organ: Gallbladder Wall; for radiation dose estimate, Heart Wall: human organ: Heart Wall; for radiation dose estimate, Kidneys: human organ: Kidneys; for radiation dose estimate, Left colon: human organ: Left colon; for radiation dose estimate, Liver: human organ: Liver; for radiation dose estimate, Lungs: human organ: Lungs; for radiation dose estimate, Osteogenic Cells: human organ: Osteogenic Cells; for radiation dose estimate, Pancreas: human organ: Pancreas; for radiation dose estimate, Prostate: human organ: Prostate; for radiation dose estimate, Rectum: human organ: Rectum; for radiation dose estimate, Red Marrow: human organ: Red Marrow; for radiation dose estimate, Right colon: human organ: Right colon; for radiation dose estimate, Salivary Glands: human organ: Salivary Glands; for radiation dose estimate, Small Intestine: human organ: Small Intestine; for radiation dose estimate, Spleen: human organ: Spleen; for radiation dose estimate, Stomach Wall: human organ: Stomach Wall; for radiation dose estimate, Testes: human organ: Testes; for radiation dose estimate, Thymus: human organ: Thymus; for radiation dose estimate, Thyroid: human organ: Thyroid; for radiation dose estimate, Urinary Bladder Wall: human organ: Urinary Bladder Wall; for radiation dose estimate, Effective Dose: human: Effective Dose; for radiation dose estimate, Total Body: human: Total Body
Protocol: The AUC of drug metabolisms was calculated from the biodistribution (Bio-D) data and imported into the OLINDA software to generate doses of radiation absorbed by all the organs.

O=C([O-])CN1CCN(CC(=O)[O-])CCN(CC(=O)NCC2CCC(C(=O)N[C@@H](Cc3ccc4ccccc4c3)C(=O)NCCCC[C@H](NC(=O)N[C@@H](CCC(=O)O)C(=O)O)C(=O)O)CC2)CCN(CC(=O)[O-])CC1.[68Ga+3] (stereo partly shown) [^68Ga-PSMA-617, reference compound]
Blood % ID/g ([1]; 0.083 h post-dose): 4.22 % ID/g (2×) and 4.29 % ID/g and 3.66 % ID/g
content of the radioactive substance in the blood ([1]; 0.25 h after the injections, mean of n=4): 2.27±0.44 % ID/g
Blood % ID/g ([1]; 0.25 h post-dose): 2.12 % ID/g and 2.53 % ID/g and 2.71 % ID/g and 1.73 % ID/g
Blood % ID/g ([1]; 0.5 h post-dose): 0.55 % ID/g (2×) and 0.84 % ID/g and 0.86 % ID/g
Blood % ID/g ([1]; 1 h post-dose): 0.14 % ID/g and 0.16 % ID/g and 0.10 % ID/g and 0.13 % ID/g
Blood % ID/g ([1]; 2 h post-dose): 0.04 % ID/g and 0.07 % ID/g and 0.10 % ID/g and 0.13 % ID/g
Blood % ID/g ([1]; 4 h post-dose): 0.29 % ID/g and 0.10 % ID/g and 0.09 % ID/g
half-life in the blood ([1]; blood of normal mice): 13.2 min
AUCINF_obs ([1]; blood of normal mice, 0-4 h): 1.65 ± 0.13 h* % ID/g
AUClast ([1]; blood of normal mice, 0-4 h): 1.66 ± 0.14 h* % ID/g
Cl_obs ([1]; blood of normal mice, 0-4 h): 12.10 ± 1.0 μCi/h* % ID/g
Cmax ([1]; blood of normal mice, 0-4 h): 4.10 ± 0.29 % ID/g
MRTlast ([1]; blood of normal mice, 0-4 h): 19.8 ± 3 min
Vz_obs ([1]; blood of normal mice, 0-4 h): 4.06 ± 1.39 μCi/% ID/g
t1/2 ([1]; blood of normal mice, 0-4 h): 13.2 min and 13.2 ± 1.2 min
radiation dose estimate, Adrenals [2]: 7.49E−02 mSv/MBq
radiation dose estimate, Brain [2]: 7.80E−02 mSv/MBq
radiation dose estimate, Esophagus [2]: 1.79E−02 mSv/MBq
radiation dose estimate, Eyes [2]: 1.25E−02 mSv/MBq
radiation dose estimate, Gallbladder Wall [2]: 3.22E−02 mSv/MBq
radiation dose estimate, Heart Wall [2]: 3.93E−02 mSv/MBq
radiation dose estimate, Kidneys [2]: 5.47E−01 mSv/MBq
radiation dose estimate, Left colon [2]: 1.63E−02 mSv/MBq
radiation dose estimate, Liver [2]: 1.75E−01 mSv/MBq
radiation dose estimate, Lungs [2]: 1.21E−01 mSv/MBq
radiation dose estimate, Osteogenic Cells [2]: 3.14E−01 mSv/MBq
radiation dose estimate, Pancreas [2]: 1.86E−02 mSv/MBq
radiation dose estimate, Prostate [2]: 7.73E−03 mSv/MBq
radiation dose estimate, Rectum [2]: 1.83E−01 mSv/MBq
radiation dose estimate, Red Marrow [2]: 2.11E−02 mSv/MBq
radiation dose estimate, Right colon [2]: 1.34E−02 mSv/MBq
radiation dose estimate, Salivary Glands [2]: 9.39E−03 mSv/MBq
radiation dose estimate, Small Intestine [2]: 1.00E−01 mSv/MBq
radiation dose estimate, Spleen [2]: 1.79E−01 mSv/MBq
radiation dose estimate, Stomach Wall [2]: 1.91E−02 mSv/MBq
radiation dose estimate, Testes [2]: 3.69E−03 mSv/MBq
radiation dose estimate, Thymus [2]: 1.16E−02 mSv/MBq
radiation dose estimate, Thyroid [2]: 1.08E−02 mSv/MBq
radiation dose estimate, Urinary Bladder Wall [2]: 5.54E−03 mSv/MBq
radiation dose estimate, Effective Dose [2]: 4.68E−02 mSv/MBq
radiation dose estimate, Total Body [2]: 3.61E−02 mSv/MBq

O=C([O-])CN1CCN(CC(=O)[O-])CCN(CC(=O)NCC2CCC(C(=O)N[C@@H](Cc3ccc4ccccc4c3)C(=O)NCCCC[C@H](NC(=O)N[C@@H](CCC(=O)O)C(=O)O)C(=O)O)CC2)CCN(CC(=O)[O-])CC1.[177Lu+3] (stereo partly shown) [^177Lu-PSMA-617, reference compound]
radiation dose estimate, Adrenals [2]: 2.43E−02 mSv/MBq
radiation dose estimate, Brain [2]: 1.38E−01 mSv/MBq
radiation dose estimate, Esophagus [2]: 3.39E−03 mSv/MBq
radiation dose estimate, Eyes [2]: 2.74E−03 mSv/MBq
radiation dose estimate, Gallbladder Wall [2]: 3.58E−03 mSv/MBq
radiation dose estimate, Heart Wall [2]: 2.41E−02 mSv/MBq
radiation dose estimate, Kidneys [2]: 1.47E+00 mSv/MBq
radiation dose estimate, Left colon [2]: 4.60E−03 mSv/MBq
radiation dose estimate, Liver [2]: 3.15E−02 mSv/MBq
radiation dose estimate, Lungs [2]: 1.12E−01 mSv/MBq
radiation dose estimate, Osteogenic Cells [2]: 5.58E−01 mSv/MBq
radiation dose estimate, Pancreas [2]: 4.36E−03 mSv/MBq
radiation dose estimate, Prostate [2]: 1.23E−03 mSv/MBq
radiation dose estimate, Rectum [2]: 1.49E−03 mSv/MBq
radiation dose estimate, Red Marrow [2]: 3.80E−03 mSv/MBq
radiation dose estimate, Right colon [2]: 2.74E−03 mSv/MBq
radiation dose estimate, Salivary Glands [2]: 2.18E−03 mSv/MBq
radiation dose estimate, Small Intestine [2]: 4.48E−02 mSv/MBq
radiation dose estimate, Spleen [2]: 9.86E−01 mSv/MBq
radiation dose estimate, Stomach Wall [2]: 8.22E−03 mSv/MBq
radiation dose estimate, Testes [2]: 5.04E−04 mSv/MBq
radiation dose estimate, Thymus [2]: 2.04E−03 mSv/MBq
radiation dose estimate, Thyroid [2]: 1.83E−03 mSv/MBq
radiation dose estimate, Urinary Bladder Wall [2]: 7.53E−04 mSv/MBq
radiation dose estimate, Effective Dose [2]: 4.74E−02 mSv/MBq
radiation dose estimate, Total Body [2]: 2.91E−02 mSv/MBq

O=C([O-])CN1CCN(CC(=O)[O-])CCN(CC(=O)N2CCO[C@]3(CC[C@H](C(=O)N[C@@H](Cc4ccc5ccccc5c4)C(=O)NCCCC[C@H](NC(=O)N[C@@H](CCC(=O)O)C(=O)O)C(=O)O)CC3)C2)CCN(CC(=O)[O-])CC1.[177Lu+3] [^177Lu-v]
absorbed dose of radiation, comparison with the labeled PSMA-617 in words ([2]; from Table 5): smaller than that resulting from ^177Lu-PSMA-617
radiation dose estimate, Adrenals [2]: 1.74E−02 mSv/MBq
radiation dose estimate, Brain [2]: 6.03E−02 mSv/MBq
radiation dose estimate, Esophagus [2]: 4.33E−03 mSv/MBq
radiation dose estimate, Eyes [2]: 2.21E−03 mSv/MBq
radiation dose estimate, Gallbladder Wall [2]: 4.67E−03 mSv/MBq
radiation dose estimate, Heart Wall [2]: 2.72E−02 mSv/MBq
radiation dose estimate, Kidneys [2]: 8.83E−01 mSv/MBq
radiation dose estimate, Left colon [2]: 4.81E−03 mSv/MBq
radiation dose estimate, Liver [2]: 7.43E−02 mSv/MBq
radiation dose estimate, Lungs [2]: 1.95E−01 mSv/MBq
radiation dose estimate, Osteogenic Cells [2]: 6.52E−01 mSv/MBq
radiation dose estimate, Pancreas [2]: 5.14E−03 mSv/MBq
radiation dose estimate, Prostate [2]: 1.29E−03 mSv/MBq
radiation dose estimate, Rectum [2]: 1.91E−03 mSv/MBq
radiation dose estimate, Red Marrow [2]: 4.16E−03 mSv/MBq
radiation dose estimate, Right colon [2]: 3.03E−03 mSv/MBq
radiation dose estimate, Salivary Glands [2]: 1.67E−03 mSv/MBq
radiation dose estimate, Small Intestine [2]: 1.73E−01 mSv/MBq
radiation dose estimate, Spleen [2]: 6.84E−01 mSv/MBq
radiation dose estimate, Stomach Wall [2]: 2.73E−02 mSv/MBq
radiation dose estimate, Testes [2]: 5.84E−04 mSv/MBq
radiation dose estimate, Thymus [2]: 2.83E−03 mSv/MBq
radiation dose estimate, Thyroid [2]: 2.41E−03 mSv/MBq
radiation dose estimate, Urinary Bladder Wall [2]: 9.14E−04 mSv/MBq
radiation dose estimate, Effective Dose [2]: 5.46E−02 mSv/MBq
radiation dose estimate, Total Body [2]: 3.07E−02 mSv/MBq
